Laboratory results as given in article PMC10708353, “Malvidin and Its Mono- and Di-Glucosides Forms: A Study of Combining Both In Vitro and Molecular Docking Studies Focused on Cholinesterase, Butyrylcholinesterase, COX-1 and COX-2 Activities” (Molecules, 2023).
Where two headings read alike, the source gives them in different places. Marks after values point to notes of the source that are not given here.

Legend:
[1] = molecular target: T1, Butyrylcholinesterase from equine serum (BChE) (Equus caballus, UniProt P81908); test: Butyrylcholinesterase inhibition assay (Ellman method, modified); type: biochemical
T1 construct: Butyrylcholinesterase from equine serum (BChE); purchased Merck kGaA, Darmstadt, Germany; host or cells: equine serum
T1 sequence (P81908 whole entry): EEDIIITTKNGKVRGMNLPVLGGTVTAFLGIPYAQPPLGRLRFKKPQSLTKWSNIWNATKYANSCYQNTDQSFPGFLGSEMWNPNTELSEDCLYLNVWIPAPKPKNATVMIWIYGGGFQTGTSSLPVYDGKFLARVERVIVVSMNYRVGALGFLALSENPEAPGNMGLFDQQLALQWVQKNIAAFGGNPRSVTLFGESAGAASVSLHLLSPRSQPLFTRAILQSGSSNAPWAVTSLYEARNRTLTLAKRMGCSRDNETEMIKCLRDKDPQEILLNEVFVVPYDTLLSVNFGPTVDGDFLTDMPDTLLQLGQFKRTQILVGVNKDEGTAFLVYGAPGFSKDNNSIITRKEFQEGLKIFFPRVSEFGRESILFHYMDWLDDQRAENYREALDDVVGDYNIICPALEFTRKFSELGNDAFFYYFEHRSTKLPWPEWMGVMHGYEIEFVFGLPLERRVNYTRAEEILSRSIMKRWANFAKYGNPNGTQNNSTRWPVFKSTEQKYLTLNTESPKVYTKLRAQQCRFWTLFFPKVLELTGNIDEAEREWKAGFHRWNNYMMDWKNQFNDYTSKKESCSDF
From the text: (§1) 5,5′-Dithiobis(2-nitrobenzoic acid), (DTNB), acetylthiocholine iodide, butyryl-thiocholine iodide, acetylcholinesterase from Electrophorus electricus, type VI-S (aChE), Butyrylcholinesterase from equine serum (BChE), neostigmine bromide, and sodium dodecyl sulfate (SDS) were purchased from Merck kGaA, Darmstadt, Germany.
(§2) Referring to both the Ellman and Jin et al. methods, we identified acetylcholinesterase/butyrylcholinesterase activity, implementing minor modifications. In brief, the assay was carried out on a 96-well plate, with each well containing 140 µL 0.1 M phosphate buffer (pH 8.0), 10 µL of stock solution of Mv, or Mv 3-glc or Mv 3,5-diglc, 10 µL AChE/BChE (1 units/mL). The plate was incubated for 10 min at 25 °C. Subsequently, 10 μL of a 10 mM DTNB was added to the reaction mixture. In the following step, the reaction was initiated by adding 10 μL of a 14 mM acetylthiocholine iodide/butyryl-thiocholine iodide. The plate was shaken for one minute and finally 20 µL of 5% SDS was added in order to stop the reaction. Control wells, which contained the same composition except for the studied compounds (10 µL, 70% ethanol), were included. […] All of the reactions were performed in five repetitions. The percent of AChE/BChE inhibition was calculated using the following formula:(1) %Inhibition=Ac−As/Ac·100% where: As refers to the absorbance of the sample containing Mvs and Ac refers to the absorbance of the control sample. The studies of AChE and BChE inhibition were also performed depending on the concentration of the drug, neostigmine, as a positive control.

[2] = molecular target: T2, acetylcholinesterase from Electrophorus electricus, type VI-S (AChE) (Electrophorus electricus, UniProt O42275); test: Acetylcholinesterase inhibition assay (Ellman method, modified); type: biochemical
T2 construct: purchased Merck kGaA, Darmstadt, Germany
T2 sequence (O42275 24-633): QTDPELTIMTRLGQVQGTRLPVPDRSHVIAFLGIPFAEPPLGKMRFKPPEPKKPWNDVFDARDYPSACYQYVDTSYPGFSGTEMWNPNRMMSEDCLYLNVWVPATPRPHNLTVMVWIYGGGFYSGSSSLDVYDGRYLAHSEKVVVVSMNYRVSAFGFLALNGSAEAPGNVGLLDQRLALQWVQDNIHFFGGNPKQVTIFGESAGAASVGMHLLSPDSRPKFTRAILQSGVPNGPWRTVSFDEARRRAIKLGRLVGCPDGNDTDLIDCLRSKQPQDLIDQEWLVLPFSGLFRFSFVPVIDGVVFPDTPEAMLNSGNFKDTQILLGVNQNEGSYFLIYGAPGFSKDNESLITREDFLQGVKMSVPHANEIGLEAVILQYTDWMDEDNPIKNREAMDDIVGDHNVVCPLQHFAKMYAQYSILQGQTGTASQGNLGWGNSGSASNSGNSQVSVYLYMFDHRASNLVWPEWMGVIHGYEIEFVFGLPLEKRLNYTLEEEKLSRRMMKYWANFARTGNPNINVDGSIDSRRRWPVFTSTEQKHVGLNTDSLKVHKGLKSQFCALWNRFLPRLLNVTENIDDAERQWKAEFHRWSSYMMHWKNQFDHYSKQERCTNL
From the text: as §1, §2

COX-1 (ovine) = molecular target: T3, COX-1 (ovine) (Ovis aries, UniProt P05979); test: COX colorimetric inhibitor screening assay, COX-1; type: biochemical
T3 construct: purchased Cayman Chemical, Ann Arbor, MI, USA 701050
T3 sequence (P05979 25-600): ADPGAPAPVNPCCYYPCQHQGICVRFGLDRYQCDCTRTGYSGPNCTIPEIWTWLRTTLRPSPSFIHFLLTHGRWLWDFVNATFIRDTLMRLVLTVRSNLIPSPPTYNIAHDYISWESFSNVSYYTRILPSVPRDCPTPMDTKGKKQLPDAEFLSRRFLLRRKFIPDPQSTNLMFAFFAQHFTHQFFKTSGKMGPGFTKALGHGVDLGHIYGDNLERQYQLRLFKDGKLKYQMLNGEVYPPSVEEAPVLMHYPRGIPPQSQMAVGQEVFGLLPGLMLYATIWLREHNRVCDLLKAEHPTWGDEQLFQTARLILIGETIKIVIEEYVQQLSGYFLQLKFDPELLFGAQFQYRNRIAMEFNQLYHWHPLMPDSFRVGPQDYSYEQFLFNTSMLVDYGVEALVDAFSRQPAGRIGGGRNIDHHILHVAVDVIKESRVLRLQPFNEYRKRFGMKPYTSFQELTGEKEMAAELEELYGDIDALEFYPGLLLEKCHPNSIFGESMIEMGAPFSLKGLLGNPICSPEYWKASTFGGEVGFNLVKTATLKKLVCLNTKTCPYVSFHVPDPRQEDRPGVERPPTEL
Method: (§3) Firstly, the plate was carefully shaken for a few seconds and incubated for 5 min at 25 °C. Secondly, 20 μL of colorimetric substrate solution was added to each plate’s well. It was the addition of 20 μL of arachidonic acid (final concentration in reaction mixture 100 µM) which initiated the reaction. Thirdly, the plate was shaken again for a few seconds and incubated for two min at 25 °C. […] The percentage of COX inhibition was calculated using the Equation (1): […]
(§4) The IC50 parameter was calculated referring to plots showing the relation between percentage of COX inhibition and concentration of the compounds.

[3] = physiological pH, species established in previous publication, cited from earlier work
[4] = molecular target: T4, COX-2 (human recombinant) (Homo sapiens, UniProt P35354); test: COX colorimetric inhibitor screening assay, COX-2; type: biochemical; settings: for Selectivity Index COX-2/COX-1: ratio of IC50 COX-2 to IC50 COX-1
T4 construct: purchased Cayman Chemical, Ann Arbor, MI, USA 701050
T4 sequence (P35354 18-604): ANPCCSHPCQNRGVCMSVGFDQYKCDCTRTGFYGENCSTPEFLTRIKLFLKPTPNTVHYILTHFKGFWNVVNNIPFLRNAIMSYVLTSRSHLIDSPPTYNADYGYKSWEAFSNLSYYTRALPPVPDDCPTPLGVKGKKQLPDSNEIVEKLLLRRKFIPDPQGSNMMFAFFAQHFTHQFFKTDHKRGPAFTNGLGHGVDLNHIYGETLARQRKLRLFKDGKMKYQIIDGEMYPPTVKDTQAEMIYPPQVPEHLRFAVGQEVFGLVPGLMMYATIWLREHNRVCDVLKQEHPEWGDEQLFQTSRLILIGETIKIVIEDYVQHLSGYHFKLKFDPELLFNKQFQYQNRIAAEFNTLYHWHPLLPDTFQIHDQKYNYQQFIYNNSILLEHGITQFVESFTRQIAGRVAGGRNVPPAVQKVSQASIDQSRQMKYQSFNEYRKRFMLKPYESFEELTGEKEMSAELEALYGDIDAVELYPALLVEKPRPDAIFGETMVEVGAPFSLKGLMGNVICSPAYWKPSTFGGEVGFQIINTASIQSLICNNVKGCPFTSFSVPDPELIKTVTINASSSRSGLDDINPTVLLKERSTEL
Method: as §3, §4

[5] = compound concentration 100 µM, read-out: Inhibition of BChE (%)
[6] = compound concentration 100 µM, read-out: Inhibition of AChE (%)
[7] = compound concentration 100 µM, 100 µM

Row | SMILES | inhibition at 20.28 µM ([1]; neostigmine concentration 20.28 µM, positive control) | IC50 ([1]; positive control) | inhibition at 0.17 µM ([2]; neostigmine concentration 0.17 µM, positive control) | IC50 ([2]; positive control) | inhibition at 100 µM [1, 5] | IC50 (COX-1 (ovine)) | fM (population of the species) [3] | fM (population of the species) ([3]; listed as Mv^2−) | fM (population of the species) ([3]; listed as Mv^3−) | fM (population of the species) ([3]; listed as Mv^−) | IC50 [4] | Selectivity Index COX-2/COX-1 [4] | inhibition at 100 µM [2, 6] | Inhibition of BChE (%) [1, 7] | inhibition at 100 µM ([1]; read-out: Inhibition of BChE (%), compound concentration 100 µM) | fM (population of the species) ([3]; listed as Mv 3-glc^2−) | fM (population of the species) ([3]; listed as Mv 3-glc^−) | Inhibition of AChE (%) [2, 7] | inhibition at 100 µM ([2]; read-out: Inhibition of AChE (%), compound concentration 100 µM) | fM (population of the species) ([3]; listed as Mv 3,5-diglc^–)
1 | CN(C)C(=O)Oc1cccc([N+](C)(C)C)c1 [Neostigmine, neostigmine bromide, reference compound] | 50 ± 4.2% | 20.3 ± 1.7 µM | 50 ± 1.2% | 0.17 ± 0.01 µM | – | – | – | – | – | – | – | – | – | – | – | – | – | – | – | –
2 | COc1cc(-c2[o+]c3cc(O)cc(O)c3cc2O)cc(OC)c1O [Mv, malvidin] | – | – | – | – | 10.2 ± 2.2% | 12.4 ± 0.7 µM | 39.56% | 8.08% | 0.13% | 52.15% | 2.76 ± 0.16 µM | 0.22 | 19.5 ± 2.3% | – | – | – | – | – | – | –
3 | COc1cc(-c2[o+]c3cc(O)cc(O)c3cc2OC2OC(CO)C(O)C(O)C2O)cc(OC)c1O (stereo not drawn) [Mv 3-glc, malvidin 3-O-glucoside] | – | – | – | – | – | 74.78 ± 0.06 µM | 3.49% | – | – | – | 39.9 ± 3.02 µM | 0.53 | – | 22.1 ± 3.0 ^a % | 22.1 ± 3% | 18.33% | 78.18% | 26.3 ± 3.1 ^a % | 26.3 ± 3.06% | –
4 | COc1cc(-c2[o+]c3cc(O)cc(OC4OC(CO)C(O)C(O)C4O)c3cc2OC2OC(CO)C(O)C(O)C2O)cc(OC)c1O (stereo not drawn) [Mv 3,5-diglc, malvidin 3,5-O-diglucoside] | – | – | – | – | 13.4 ± 2.4% | 90.4 ± 1.92 µM | 39.19% | – | – | – | 66.5 ± 1.93 µM | 0.83 | 11.9 ± 4.5% | – | – | – | – | – | – | 60.70%
